From PMC6811774, “Potent, selective, and subunit‐dependent activation of TRPC5 channels by a xanthine derivative” (British Journal of Pharmacology, 2019) come the findings set out here.

For this assay, the target named is T1, TRPC5:C5 channels (hTRPC5) (Homo sapiens, UniProt Q9UL62).
T1 construct: expressed in transfected cells
T1 sequence (Q9UL62 1-973): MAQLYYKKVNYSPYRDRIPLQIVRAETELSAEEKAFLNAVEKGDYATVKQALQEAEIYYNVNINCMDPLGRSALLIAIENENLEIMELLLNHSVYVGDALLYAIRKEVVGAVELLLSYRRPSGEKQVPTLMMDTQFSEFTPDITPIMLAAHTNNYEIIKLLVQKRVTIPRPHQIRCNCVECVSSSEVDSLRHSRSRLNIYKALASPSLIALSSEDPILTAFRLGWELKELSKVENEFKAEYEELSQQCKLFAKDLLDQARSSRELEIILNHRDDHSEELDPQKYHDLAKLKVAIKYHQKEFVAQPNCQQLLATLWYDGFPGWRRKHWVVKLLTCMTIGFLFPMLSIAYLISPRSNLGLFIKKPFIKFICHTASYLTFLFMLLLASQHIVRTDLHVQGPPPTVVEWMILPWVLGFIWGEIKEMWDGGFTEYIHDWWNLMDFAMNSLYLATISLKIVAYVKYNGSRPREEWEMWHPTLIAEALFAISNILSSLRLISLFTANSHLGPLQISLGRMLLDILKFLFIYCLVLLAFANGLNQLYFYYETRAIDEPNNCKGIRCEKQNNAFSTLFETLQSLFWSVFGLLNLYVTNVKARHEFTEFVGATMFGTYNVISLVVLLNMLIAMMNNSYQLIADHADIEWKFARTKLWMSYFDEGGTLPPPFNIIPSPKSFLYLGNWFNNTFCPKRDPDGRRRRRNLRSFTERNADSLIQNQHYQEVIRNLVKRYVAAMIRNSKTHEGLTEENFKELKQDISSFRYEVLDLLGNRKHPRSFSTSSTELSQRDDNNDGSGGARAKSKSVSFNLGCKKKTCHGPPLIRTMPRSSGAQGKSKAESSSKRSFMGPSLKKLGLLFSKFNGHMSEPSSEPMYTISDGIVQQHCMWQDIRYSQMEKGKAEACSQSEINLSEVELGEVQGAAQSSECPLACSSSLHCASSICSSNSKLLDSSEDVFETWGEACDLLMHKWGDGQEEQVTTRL
As to the kind of experiment: Excised outside-out patch-clamp, hTRPC5-expressing HEK (Tet+) T-REx cells. In kind it is cell-based. The protocol: For electrophysiology experiments, cells were plated at a low density of 20–30% onto round or square glass coverslips (13 mm diameter or 5 × 5 mm), and TRPC expression in HEK T‐REx was induced with 1 μg·ml^−1 tetracycline 24 hr before experimentation. Experiments were carried out at room temperature. Extracellular solution consisted of SBS. Patch‐clamp recordings were performed in whole‐cell mode (Figure S7) and in excised outside‐out patch mode under voltage clamp at room temperature using 2–4 MΩ patch pipettes fabricated from borosilicate glass capillaries with an outside diameter of 1 mm and an inside diameter of 0.58 mm (Harvard Apparatus). The voltage protocol comprised voltage ramps applied from −100 to +100 mV every 10 s from a holding potential of 0 mV. The patch‐clamp currents were recorded using Axopatch 200B or HEKA EPC‐800 amplifiers, digitized by a Digidata 1440 or PCI6229 (National Instruments Japan, Tokyo, Japan) and recorded to a computer using pCLAMP10 (Molecular Devices) or WinWCPV4.5 (developed by Dr John Dempster, University of Strathclyde, UK). The data were filtered at 1 kHz and analysed offline using Clampfit 10.2 software or WinWCPV4.5 and Origin 9.1 software (OriginLab, Northampton, MA). The bath solution consisted of SBS and the pipette solution (intracellular solution) contained 145‐mM CsCl, 2‐mM MgCl2, 10‐mM HEPES, 1‐mM EGTA (free acid), 5‐mM ATP (sodium salt), and 0.1‐mM NaGTP, titrated to pH 7.2 with CsOH. All solutions were filtered using a 0.2 μm filter (Sartorius, UK). Comparisons of peak current sizes mediated by EA‐activated TRPC1/4/5 channels in whole cells and excised outside‐out patches are provided in Figure S12.

Turning to `Cn1c(=O)n(CCCO)c(=O)c2c1nc(Oc1ccc(Cl)c(OC(F)(F)F)c1)n2Cc1ccc(Cl)cc1` [AM237], the “Effect on inward and outward currents induced by EA” value (30 nM EA, outside-out patch) was “partially suppressed”. Besides, for the setting “+100 mV, outside-out patch”, the “Amplitude of outward current response compared to response induced by 30-nM EA” value is listed as “up to 45%”. Besides, under “-100 mV, outside-out patch”, the “Amplitude of inward current response compared to response induced by 30-nM EA” value was “up to 25%”. In addition, the “Concentration giving peak current” value (in the presence of 1- and 3-nM Pico145, decreasing at 300 nM and 1 μM) came out at 100 nM. Moreover, the “Concentration giving maximum current response” value (no Pico145, lower responses at 100 nM) is 30 nM.
